Source: ChEMBL document CHEMBL5042470, “Combined Cardioprotective and Adipocyte Browning Effects Promoted by the Eutomer of Dual sEH/PPARγ Modulator” (J Med Chem, 2021)
Activity calls are given as the source filed them. The calls are words filed in the database; no cut-off is given here.

What was measured:
SGBS [1] = test: Induction of adipogenic differentiation in human SGBS cells assessed as increase in perilipin A mRNA expression A at 0.01 to 1 uM by RT-PCR analysis; type: functional, cell-based; details: dose 0.01-1 µM
SGBS [2] = test: Induction of browning in human SGBS cells assessed as increase in UQCRC2 mRNA expression by qRT-PCR analysis; type: functional, cell-based; details: dose 0.01-1 µM
SGBS [3] = test: Induction of cellular respiration in human SGBS cells assessed as increase in oxygen consumption rate at 0.01 to 1 uM with ATP-linked sequential addition of FCCP measured after 14 days by Seahorse XFe96 flux analyzer; type: functional, cell-based; details: dose 0.01-1 µM, time 14.0 day
SGBS [4] = test: Induction of proton leakage in human SGBS cells assessed as increase in oxygen consumption rate at 0.01 to 1 uM with sequential addition of oligomycin measured after 14 days by Seahorse XFe96 flux analyzer; type: functional, cell-based; details: dose 0.01-1 µM, time 14.0 day
SGBS [5] = test: Induction of browning in human SGBS cells assessed as increase in UCP1 mRNA expression at 0.01 to 1 uM by RT-PCR analysis; type: functional, cell-based; details: dose 0.01-1 µM
SGBS [6] = test: Induction of browning in human SGBS cells assessed as increase in UQCRC2 mRNA expression at 0.01 to 1 uM by qRT-PCR analysis; type: functional, cell-based; details: dose 0.01-1 µM
SGBS [7] = test: Induction of basal respiration in human SGBS cells assessed as increase in oxygen consumption rate at 0.01 to 1 uM incubated for 14 days in presence of dibutyryl-cAMP by Seahorse XFe96 flux analyzer; type: functional, cell-based; details: dose 0.01-1 µM, time 14.0 day
SGBS [8] = test: Induction of adipogenic differentiation in human SGBS cells assessed as intracellular lipid droplet accumulation at 0.01 to 1 uM measured after 4 days by Nile red staining based imaging analysis; type: functional, cell-based; details: dose 0.01-1 µM, time 4.0 day
[9] = target: T1, Oxysterols receptor LXR-alpha (Homo sapiens) (UniProt Q13133); test: Agonist activity at human GAL4 DBD-fused LXRalpha LBD (182 to 447 residues) transfected in HEK293T cells assessed as fold activation at 10 uM incubated for 14 to 16 hrs by Renilla/Firefly dual-luciferase reporter assay; type: cell-based; details: time 14-16 hrs
T1 sequence (whole entry): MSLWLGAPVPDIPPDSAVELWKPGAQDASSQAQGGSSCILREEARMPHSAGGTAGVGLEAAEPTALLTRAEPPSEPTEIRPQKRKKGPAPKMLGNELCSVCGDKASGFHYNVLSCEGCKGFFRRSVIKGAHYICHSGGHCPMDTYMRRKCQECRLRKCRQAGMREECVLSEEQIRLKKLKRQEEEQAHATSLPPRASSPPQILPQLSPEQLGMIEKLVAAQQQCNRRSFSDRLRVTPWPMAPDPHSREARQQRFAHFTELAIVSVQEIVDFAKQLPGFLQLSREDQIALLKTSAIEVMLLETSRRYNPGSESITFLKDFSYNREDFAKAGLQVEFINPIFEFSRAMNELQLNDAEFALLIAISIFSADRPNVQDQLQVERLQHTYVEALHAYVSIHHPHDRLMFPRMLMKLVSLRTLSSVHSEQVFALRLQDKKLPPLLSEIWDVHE

[10] = target: T2, Retinoic acid receptor alpha (Homo sapiens) (UniProt P10276); test: Agonist activity at human GAL4 DBD-fused RARalpha LBD (177 to 462 residues) transfected in HEK293T cells assessed as fold activation at 10 uM incubated for 14 to 16 hrs by Renilla/Firefly dual-luciferase reporter assay; type: cell-based; details: time 14-16 hrs
T2 sequence (whole entry): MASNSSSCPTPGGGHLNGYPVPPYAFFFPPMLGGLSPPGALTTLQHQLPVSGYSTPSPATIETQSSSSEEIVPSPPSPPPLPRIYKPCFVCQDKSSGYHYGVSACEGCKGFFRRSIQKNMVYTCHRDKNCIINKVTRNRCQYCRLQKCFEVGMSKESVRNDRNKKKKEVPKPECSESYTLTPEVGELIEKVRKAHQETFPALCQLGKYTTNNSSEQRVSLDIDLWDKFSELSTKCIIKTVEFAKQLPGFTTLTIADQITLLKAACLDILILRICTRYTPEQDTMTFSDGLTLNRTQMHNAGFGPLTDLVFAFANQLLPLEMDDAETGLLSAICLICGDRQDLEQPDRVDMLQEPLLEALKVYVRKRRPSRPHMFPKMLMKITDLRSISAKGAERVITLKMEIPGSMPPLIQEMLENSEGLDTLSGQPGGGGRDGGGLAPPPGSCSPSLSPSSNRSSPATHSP

[11] = target: T3, Vitamin D3 receptor (Homo sapiens) (UniProt P11473); test: Agonist activity at human GAL4 DBD-fused VDR LBD (119 to 427 residues) transfected in HEK293T cells assessed as fold activation at 10 uM incubated for 14 to 16 hrs by Renilla/Firefly dual-luciferase reporter assay; type: cell-based; details: time 14-16 hrs
T3 sequence (whole entry): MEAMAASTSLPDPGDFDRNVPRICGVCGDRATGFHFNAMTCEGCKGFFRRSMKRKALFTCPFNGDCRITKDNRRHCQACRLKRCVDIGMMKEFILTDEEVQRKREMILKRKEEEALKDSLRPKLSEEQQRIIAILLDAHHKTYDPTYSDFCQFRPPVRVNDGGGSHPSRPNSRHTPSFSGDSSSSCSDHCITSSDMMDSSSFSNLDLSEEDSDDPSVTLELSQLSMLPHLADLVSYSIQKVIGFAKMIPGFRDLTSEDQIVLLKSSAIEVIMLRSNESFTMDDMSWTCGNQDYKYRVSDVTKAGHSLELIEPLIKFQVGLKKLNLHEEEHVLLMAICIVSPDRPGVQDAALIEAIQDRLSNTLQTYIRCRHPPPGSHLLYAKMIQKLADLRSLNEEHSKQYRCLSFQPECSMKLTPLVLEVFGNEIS

[12] = target: T4, Peroxisome proliferator-activated receptor alpha (Homo sapiens) (UniProt Q07869); test: Agonist activity at human GAL4 DBD-fused PPARalpha ( 164 to 466 residues) LBD transfected in HEK293T cells assessed as fold activation at 10 uM incubated for 14 to 16 hrs by Renilla/Firefly dual-luciferase reporter assay; type: cell-based; details: filed as agonist, time 14-16 hrs
T4 sequence (whole entry): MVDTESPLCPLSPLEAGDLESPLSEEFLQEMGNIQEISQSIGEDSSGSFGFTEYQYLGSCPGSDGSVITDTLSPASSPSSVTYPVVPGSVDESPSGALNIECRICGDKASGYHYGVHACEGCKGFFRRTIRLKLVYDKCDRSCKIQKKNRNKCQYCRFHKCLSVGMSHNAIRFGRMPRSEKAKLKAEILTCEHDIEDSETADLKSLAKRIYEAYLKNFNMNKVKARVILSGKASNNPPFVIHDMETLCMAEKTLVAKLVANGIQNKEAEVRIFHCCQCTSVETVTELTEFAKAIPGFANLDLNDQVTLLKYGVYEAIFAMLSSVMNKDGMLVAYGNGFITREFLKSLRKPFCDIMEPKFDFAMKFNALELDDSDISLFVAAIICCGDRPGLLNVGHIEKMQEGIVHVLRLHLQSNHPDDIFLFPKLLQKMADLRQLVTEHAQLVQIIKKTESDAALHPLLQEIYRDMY

Heart [13] = test: Cardioprotective activity in Langendorff-perfused wild-type C57BL/6 mouse heart assessed as increase in heart rate at 3 nM; type: functional, tissue-based
Mus musculus [14] = organism: Mus musculus; test: (§1) Cardioprotective activity in Langendorff-perfused wild-type C57BL/6 mouse model of coronary occlusion induced ischemia/reperfusion assessed as increase in left ventricular developed pressure at 3 nmol/L followed by ischemia for 20 mins and measured 2 hrs after reperfusion […]; type: functional, organism-based; details: time 140.0 min
Heart [15] = test: Cardioprotective activity in Langendorff-perfused wild-type C57BL/6 mouse heart assessed as increase in heart rate at 300 nM; type: functional, tissue-based
[16] = target: T5, Peroxisome proliferator-activated receptor delta (Homo sapiens) (UniProt Q03181); test: Agonist activity at human GAL4 DBD-fused PPARdelta LBD (138 to 441 residues) transfected in HEK293T cells assessed as fold activation at 10 uM incubated for 14 to 16 hrs by Renilla/Firefly dual-luciferase reporter assay; type: cell-based; details: time 14-16 hrs
T5 sequence (whole entry): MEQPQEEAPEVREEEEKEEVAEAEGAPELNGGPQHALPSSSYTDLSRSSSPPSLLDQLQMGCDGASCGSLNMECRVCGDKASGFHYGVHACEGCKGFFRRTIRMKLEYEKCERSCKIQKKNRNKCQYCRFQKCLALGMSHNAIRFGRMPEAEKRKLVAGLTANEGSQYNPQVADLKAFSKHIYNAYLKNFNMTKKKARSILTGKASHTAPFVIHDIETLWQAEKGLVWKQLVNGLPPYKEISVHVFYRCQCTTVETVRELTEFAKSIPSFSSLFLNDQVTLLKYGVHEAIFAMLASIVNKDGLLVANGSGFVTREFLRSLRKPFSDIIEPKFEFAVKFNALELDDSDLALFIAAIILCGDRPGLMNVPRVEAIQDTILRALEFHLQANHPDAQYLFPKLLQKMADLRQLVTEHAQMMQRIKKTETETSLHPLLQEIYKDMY

Mus musculus [17] = organism: Mus musculus; test: as §1, with “decrease” for “increase”, “end diastolic” for “developed”; type: functional, organism-based; details: time 140.0 min
Heart [18] = test: Cardioprotective activity in Langendorff-perfused wild-type C57BL/6 mouse heart assessed as increase in heart rate at 30 nM; type: functional, tissue-based

SMILES | Activity (SGBS [1]) | Activity (SGBS [2]) | Activity (SGBS [3]) | Activity (SGBS [4]) | Activity (SGBS [5]) | Activity (SGBS [6]) | Activity (SGBS [7]) | Activity (SGBS [8]) | Activity [9] | Activity [10] | Activity [11] | Activity [12] | Activity (Heart [13]) | Activity (Mus musculus [14]) | Activity (Heart [15]) | Activity [16] | Activity (Mus musculus [17]) | Activity (Heart [18])
CN(CCOc1ccc(CC2SC(=O)NC2=O)cc1)c1ccccn1 (configuration not stated) | Active | Dose-Dependent Effect |  |  |  |  |  |  |  |  |  |  |  |  |  |  |  | 
CC[C@@H](Cc1ccc(C(=O)NCc2ccc(OC)cc2C(F)(F)F)cc1)C(=O)O | Active |  | Active | Active | inactive | inactive | Active | inactive |  |  |  |  |  |  |  |  |  | 
CC[C@H](Cc1ccc(C(=O)NCc2ccc(OC)cc2C(F)(F)F)cc1)C(=O)O | Active |  | Active | Active | Active | inactive | Active | Active | inactive | inactive | inactive | Active | inactive | Active | Active | inactive | Active | 
O=C(NC12CC3CC(CC(C3)C1)C2)N[C@H]1CC[C@H](Oc2ccc(C(=O)O)cc2)CC1 |  |  |  |  |  |  |  |  |  |  |  |  | inactive |  |  |  |  | Active
